Results as given in patent US20250381207A1, “FLAVONOID-CONTAINING COMPOSITIONS AND TREATMENT OF VIRAL DISEASES WITH SAME” (priority 2024, published 2025).

Experiments:
SARS-COV-2 spike protein = target: T1, SARS-COV-2 spike protein (Severe acute respiratory syndrome coronavirus 2, UniProt P0DTC2); assay: Surface plasmon resonance (SPR) analysis; type: binding; details: for Activity (actual) / Activity (calculated) / Rmax (actual) / Rmax (calculated): SPR, analyte 0.4-100 μM, SCK; for Rmax (actual) / Rmax (calculated): 25° C.
T1 construct: Target/ligand: SARS-COV2 RBD; 4815 RU captured; purchased R&D Systems, Inc., Minneapolis, MN AVI10500

ACE2 = ACE2 (Homo sapiens, UniProt Q9BYF1); assay: In vitro fluorescence ligand binding assay (relative ACE2 inhibition); details: for remaining activity at 100 µM: read-out: % of control/blank fluorescence; for IC50: fluorescence binding assay, relative ACE2 inhibition
Description: A fluorescence ligand bind assay (Lora Benoit, Vinayak Shenoy, Simon Meykler, Ali Mohseni. SARS-COV-2 spike protein 13-mer subdomain corresponds to the drug-binding domain of glutamyl-propyl-tRNA synthetase 1 and is targetable by halofuginone, 22 Jul. 2021, PREPRINT (Version 1) available at Research Square [world wide web at doi.org/10.21203/rs.3.rs-738132/v1]) used to test the binding of various flavonoids. Fluorescence values increased over time (likely due to evaporation at 37° C.), but differences in fluorescence intensity after a kinetic read may be used to calculate relative ACE2 inhibition.

[1] = SPR FIG. 15A, 50 μM, SARS-COV2 RBD on SA chip

Sequence of ACE2 (Q9BYF1 18-805): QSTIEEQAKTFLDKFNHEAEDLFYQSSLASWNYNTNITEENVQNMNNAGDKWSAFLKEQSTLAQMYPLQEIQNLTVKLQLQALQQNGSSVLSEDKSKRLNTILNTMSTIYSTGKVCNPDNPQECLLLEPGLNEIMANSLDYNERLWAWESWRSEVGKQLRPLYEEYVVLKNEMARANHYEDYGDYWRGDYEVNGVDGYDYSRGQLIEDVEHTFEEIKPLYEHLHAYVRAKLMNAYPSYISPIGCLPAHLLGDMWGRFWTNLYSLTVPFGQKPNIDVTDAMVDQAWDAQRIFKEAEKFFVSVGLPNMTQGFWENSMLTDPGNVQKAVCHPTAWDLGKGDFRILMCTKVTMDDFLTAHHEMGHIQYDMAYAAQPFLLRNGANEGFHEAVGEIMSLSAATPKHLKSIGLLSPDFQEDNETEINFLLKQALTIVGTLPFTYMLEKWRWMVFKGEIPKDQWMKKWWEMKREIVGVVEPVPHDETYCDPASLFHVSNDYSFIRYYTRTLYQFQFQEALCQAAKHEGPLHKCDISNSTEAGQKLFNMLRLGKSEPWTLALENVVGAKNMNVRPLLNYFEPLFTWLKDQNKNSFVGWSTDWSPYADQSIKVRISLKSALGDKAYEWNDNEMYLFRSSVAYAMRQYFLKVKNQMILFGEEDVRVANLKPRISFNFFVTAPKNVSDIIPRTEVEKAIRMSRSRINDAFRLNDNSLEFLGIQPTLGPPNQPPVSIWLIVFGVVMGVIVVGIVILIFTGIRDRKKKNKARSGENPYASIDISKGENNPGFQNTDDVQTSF

Molecule | Activity (actual) (SARS-COV-2 spike protein; SARS-COV2 RBD on SA chip) [%] | Activity (calculated) (SARS-COV-2 spike protein; SARS-COV2 RBD on SA chip) [%] | Rmax (actual) (SARS-COV-2 spike protein; SARS-COV2 RBD on SA chip) [RU] | Rmax (calculated) (SARS-COV-2 spike protein; SARS-COV2 RBD on SA chip) [RU] | remaining activity at 100 µM (ACE2) [%] | IC50 (ACE2) [µM] | further results
hesperidin | 72 | 40 | 72.7 | 40.4 |  |  | Activity (50 μM) (SARS-COV-2 spike protein; [1]): 98%; Rmax (50 μM) (SARS-COV-2 spike protein; [1]): 94.3 RU; SPR binding activity, in words (SARS-COV-2 spike protein; initial experiment, MCK mode from 10 μM): displayed binding activity with slow dissociation; activity (inhibitory effect on binding to SARS-COV-2 spike protein and ACE2) (SARS-COV-2 spike protein; summary statement of Example 1): 82%; viability normalized to SARS-COV-2 spike protein treatment alone and vehicle (Calu-3 cell line): over 80%
O=C1C[C@@H](c2ccc(O)cc2)Oc2cc(O)cc(O)c21 [Naringenin, naringenin] |  |  |  |  | 57 | 36.2 | 
C[C@@H]1O[C@@H](OC[C@H]2O[C@@H](Oc3c(-c4ccc(O)c(O)c4)oc4cc(O)cc(O)c4c3=O)[C@H](O)[C@@H](O)[C@@H]2O)[C@H](O)[C@H](O)[C@H]1O [Rutin, rutin] | 21 | 17 | 21.0 | 16.7 | 44 | 39.4 | 
COc1ccc(C[C@H](N)C(=O)N[C@H]2[C@@H](O)[C@H](n3cnc4c(N(C)C)ncnc43)O[C@@H]2CO)cc1 [Puromycin, puromycin, reference compound] |  |  |  |  |  |  | Percent viable cells (%) normalized to vehicle control and puromycin (Calu-3 cell line; human): 0.00%
COc1ccc(-c2cc(=O)c3c(OC)c(OC)c(OC)c(OC)c3o2)cc1OC [nobiletin] |  |  |  |  | 60 | 26.5 | 
COc1ccc(C2CC(=O)c3c(O)cc(O)cc3O2)cc1O (stereo not drawn) [hesperetin] |  |  |  |  |  |  | Calu-3 viability after compound + SARS-COV-2 spike protein treatment, in words (Calu-3 cell line): decrease of viability in a hesperetin concentration-dependent manner
